{"source": "paper PMC7041945", "about": "“Misfolded proteins bind and activate death receptor 5 to trigger apoptosis during unresolved endoplasmic reticulum stress” (eLife, 2020)", "key": {"[1]": {"system": "CHOP, BiP, and DR5 mRNA in HCT116 cells", "assay": "qPCR of UPR target transcripts (CHOP, BiP, DR5)", "format": "cell-based, Homo sapiens", "procedure": "Cells were grown in 6-well plates and harvested with 0.5 ml of TRIzol reagent (Life Technologies) per manufacturer’s protocol to extract RNA. For cDNA synthesis, 500 ng of total RNA was reverse transcribed with 2 μl of the SuperScript VILO master mix (Life Technologies # 11755050) in a total reaction volume of 10 μl following the manufacturer’s protocol for reaction temperature and duration. The reverse transcription product was diluted to 200 μl with 10 mM Tris-HCl pH 8.2 and used at 1:100 dilution for subsequent RT-PCR reactions.\nPCR samples were prepared as described by manufacturer’s protocols from iQ SYBR Green Supermix (BioRad #17088800).\nFor each experiment, qRT-PCR reactions were set up in triplicate and run using a CFX96 Real Time System (Bio-Rad). Quantitation cycles were determined with CFX Manager 3.0 software (Bio-Rad) and then normalized to GAPDH as an internal control."}, "[2]": {"system": "GFP (340+341)", "assay": "qPCR of GFP transcript (expression of GFP-tagged construct)", "format": "cell-based", "conditions": "Rep 2; for avg. fold induction GFP (340+341) / fold induction GFP (340+341): relative to empty traffo"}, "[3]": {"conditions": "Compiled Reps INS RHO, average of 6 reps"}}}
{"substance": "INS-GFP: GFP-tagged proinsulin expressed from plasmid", "values": [{"measurement": "2^-(deltaCq) DR5 total", "setting": "[1]; 24 hr, Rep 2, replicate 3", "value": 0.04058}, {"measurement": "Cq CHOP", "setting": "[1]; 24 hr, Rep 2, replicate 3", "value": 23.8955}, {"measurement": "Cq DR5 total", "setting": "[1]; 24 hr, Rep 2, replicate 3", "value": 24.3278}, {"measurement": "Cq(sample) - avg Cq(GAPDH), CHOP", "setting": "[1]; 24 hr, Rep 2, replicate 3", "value": 4.191}, {"measurement": "Cq(sample) - avg Cq(GAPDH), DR5 total", "setting": "[1]; 24 hr, Rep 2, replicate 3", "value": 4.623}, {"measurement": "BiP avg fold change relative to empty", "setting": "[1]; Compiled Reps INS RHO, average of 3 reps", "value": 1.818}, {"measurement": "CHOP avg fold change relative to empty", "setting": "[1]; [3]", "value": 4.114}, {"measurement": "DR5 avg fold change relative to empty", "setting": "[1]; [3]", "value": 1.533}, {"measurement": "GAPDH avg fold change relative to empty", "setting": "[1]; [3]", "value": 1.006}, {"measurement": "GFP construct avg fold change relative to empty", "setting": "[1]; [3]", "value": 92.5691}, {"measurement": "BiP fold change relative to empty", "setting": "[1]; Compiled Reps INS RHO, rep 1", "value": 1.621}, {"measurement": "CHOP fold change relative to empty", "setting": "[1]; Compiled Reps INS RHO, rep 1", "value": 3.15}, {"measurement": "DR5 fold change relative to empty", "setting": "[1]; Compiled Reps INS RHO, rep 1", "value": 1.705}, {"measurement": "GAPDH fold change relative to empty", "setting": "[1]; Compiled Reps INS RHO, rep 1", "value": 0.8468}, {"measurement": "GFP construct fold change relative to empty", "setting": "[1]; Compiled Reps INS RHO, rep 1", "value": 79.1961}, {"measurement": "BiP fold change relative to empty", "setting": "[1]; Compiled Reps INS RHO, rep 2", "value": 1.965}, {"measurement": "CHOP fold change relative to empty", "setting": "[1]; Compiled Reps INS RHO, rep 2", "value": 3.503}, {"measurement": "DR5 fold change relative to empty", "setting": "[1]; Compiled Reps INS RHO, rep 2", "value": 1.533}, {"measurement": "GAPDH fold change relative to empty", "setting": "[1]; Compiled Reps INS RHO, rep 2", "value": 1.093}, {"measurement": "GFP construct fold change relative to empty", "setting": "[1]; Compiled Reps INS RHO, rep 2", "value": 73.666}, {"measurement": "BiP fold change relative to empty", "setting": "[1]; Compiled Reps INS RHO, rep 3", "value": 1.867}, {"measurement": "CHOP fold change relative to empty", "setting": "[1]; Compiled Reps INS RHO, rep 3", "value": 2.685}, {"measurement": "DR5 fold change relative to empty", "setting": "[1]; Compiled Reps INS RHO, rep 3", "value": 1.358}, {"measurement": "GAPDH fold change relative to empty", "setting": "[1]; Compiled Reps INS RHO, rep 3", "value": 1.081}, {"measurement": "GFP construct fold change relative to empty", "setting": "[1]; Compiled Reps INS RHO, rep 3", "value": 131.33}, {"measurement": "CHOP fold change relative to empty", "setting": "[1]; Compiled Reps INS RHO, rep 4", "value": 6.073}, {"measurement": "DR5 fold change relative to empty", "setting": "[1]; Compiled Reps INS RHO, rep 4", "value": 1.494}, {"measurement": "GAPDH fold change relative to empty", "setting": "[1]; Compiled Reps INS RHO, rep 4", "value": 0.8281}, {"measurement": "GFP construct fold change relative to empty", "setting": "[1]; Compiled Reps INS RHO, rep 4", "value": 82.5431}, {"measurement": "CHOP fold change relative to empty", "setting": "[1]; Compiled Reps INS RHO, rep 5", "value": 4.514}, {"measurement": "DR5 fold change relative to empty", "setting": "[1]; Compiled Reps INS RHO, rep 5", "value": 1.718}, {"measurement": "GAPDH fold change relative to empty", "setting": "[1]; Compiled Reps INS RHO, rep 5", "value": 1.042}, {"measurement": "GFP construct fold change relative to empty", "setting": "[1]; Compiled Reps INS RHO, rep 5", "value": 92.9155}, {"measurement": "CHOP fold change relative to empty", "setting": "[1]; Compiled Reps INS RHO, rep 6", "value": 4.759}, {"measurement": "DR5 fold change relative to empty", "setting": "[1]; Compiled Reps INS RHO, rep 6", "value": 1.392}, {"measurement": "GAPDH fold change relative to empty", "setting": "[1]; Compiled Reps INS RHO, rep 6", "value": 1.149}, {"measurement": "GFP construct fold change relative to empty", "setting": "[1]; Compiled Reps INS RHO, rep 6", "value": 95.7639}, {"measurement": "UPR target gene transcription", "setting": "[1]; HCT116, transfected 24 hr", "value": "upregulated BiP and CHOP mRNAs"}, {"measurement": "avg. fold induction GFP (340+341)", "setting": "[2]; 3 hr, mean of 3 replicates", "value": 6059.51}, {"measurement": "fold induction GFP (340+341)", "setting": "[2]; 3 hr, replicate 1", "value": 5553.44}, {"measurement": "fold induction GFP (340+341)", "setting": "[2]; 3 hr, replicate 2", "value": 6428.23}, {"measurement": "fold induction GFP (340+341)", "setting": "[2]; 3 hr, replicate 3", "value": 6196.87}, {"measurement": "2^-(deltaCq) GFP (340+341)", "setting": "[2]; 3 hr, replicate 1", "value": 0.9383}, {"measurement": "Cq GFP (340+341)", "setting": "[2]; 3 hr, replicate 1", "value": 19.2537}, {"measurement": "Cq(sample) - avg Cq(GAPDH), GFP (340+341)", "setting": "[2]; 3 hr, replicate 1", "value": 0.0918}, {"measurement": "2^-(deltaCq) GFP (340+341)", "setting": "[2]; 3 hr, replicate 2", "value": 1.086}, {"measurement": "Cq GFP (340+341)", "setting": "[2]; 3 hr, replicate 2", "value": 19.0426}, {"measurement": "Cq(sample) - avg Cq(GAPDH), GFP (340+341)", "setting": "[2]; 3 hr, replicate 2", "value": -0.1192}, {"measurement": "2^-(deltaCq) GFP (340+341)", "setting": "[2]; 3 hr, replicate 3", "value": 1.047}, {"measurement": "Cq GFP (340+341)", "setting": "[2]; 3 hr, replicate 3", "value": 19.0955}, {"measurement": "Cq(sample) - avg Cq(GAPDH), GFP (340+341)", "setting": "[2]; 3 hr, replicate 3", "value": -0.06635}, {"measurement": "avg. fold induction GFP (340+341)", "setting": "[2]; 7 hr, mean of 3 replicates", "value": 36312.6}, {"measurement": "fold induction GFP (340+341)", "setting": "[2]; 7 hr, replicate 1", "value": 36506.4}, {"measurement": "fold induction GFP (340+341)", "setting": "[2]; 7 hr, replicate 2", "value": 31765.4}, {"measurement": "fold induction GFP (340+341)", "setting": "[2]; 7 hr, replicate 3", "value": 40666.1}, {"measurement": "2^-(deltaCq) GFP (340+341)", "setting": "[2]; 7 hr, replicate 1", "value": 6.168}, {"measurement": "Cq GFP (340+341)", "setting": "[2]; 7 hr, replicate 1", "value": 16.6754}, {"measurement": "Cq(sample) - avg Cq(GAPDH), GFP (340+341)", "setting": "[2]; 7 hr, replicate 1", "value": -2.625}, {"measurement": "2^-(deltaCq) GFP (340+341)", "setting": "[2]; 7 hr, replicate 2", "value": 5.3673}, {"measurement": "Cq GFP (340+341)", "setting": "[2]; 7 hr, replicate 2", "value": 16.8761}, {"measurement": "Cq(sample) - avg Cq(GAPDH), GFP (340+341)", "setting": "[2]; 7 hr, replicate 2", "value": -2.4242}, {"measurement": "2^-(deltaCq) GFP (340+341)", "setting": "[2]; 7 hr, replicate 3", "value": 6.871}, {"measurement": "Cq GFP (340+341)", "setting": "[2]; 7 hr, replicate 3", "value": 16.5198}, {"measurement": "Cq(sample) - avg Cq(GAPDH), GFP (340+341)", "setting": "[2]; 7 hr, replicate 3", "value": -2.781}, {"measurement": "avg. 2^-(deltaCq) GFP (340+341)", "setting": "[2]; 24 hr, mean of 3 replicates", "value": 90.4075}, {"measurement": "2^-(deltaCq) GFP (340+341)", "setting": "[2]; 24 hr, replicate 1", "value": 82.5431}, {"measurement": "Cq GFP (340+341)", "setting": "[2]; 24 hr, replicate 1", "value": 13.3376}, {"measurement": "Cq(sample) - avg Cq(GAPDH), GFP (340+341)", "setting": "[2]; 24 hr, replicate 1", "value": -6.367}, {"measurement": "2^-(deltaCq) GFP (340+341)", "setting": "[2]; 24 hr, replicate 2", "value": 92.9155}, {"measurement": "Cq GFP (340+341)", "setting": "[2]; 24 hr, replicate 2", "value": 13.1668}, {"measurement": "Cq(sample) - avg Cq(GAPDH), GFP (340+341)", "setting": "[2]; 24 hr, replicate 2", "value": -6.538}, {"measurement": "2^-(deltaCq) GFP (340+341)", "setting": "[2]; 24 hr, replicate 3", "value": 95.7639}, {"measurement": "Cq GFP (340+341)", "setting": "[2]; 24 hr, replicate 3", "value": 13.1232}, {"measurement": "Cq(sample) - avg Cq(GAPDH), GFP (340+341)", "setting": "[2]; 24 hr, replicate 3", "value": -6.581}]}
